Experiments:
Influenza A virus = assay: Anti-viral activity against Influenza A virus H7N1 pseudotype infected in human A549 cells assessed as inhibition of viral entry incubated for 48 hrs by Neolite Reporter Gene Assay; format: functional, organism-based; conditions: H7N1, A549, 48 h
[1] = Cytotoxicity against human A549 cells incubated for 48 hrs by CellTiter-Glo Luminescent Cell Viability Assay; format: toxicity, cell-based
[2] = Metabolic stability in human plasma at 2 uM measured after 60 mins by LC-MS/MS analysis; format: ADME, cell-free; conditions: 1 h
[3] = Metabolic stability in BALB/c mouse liver microsomes assessed as compound remaining at 2 to 10 uM measured after 60 mins in absence of NADPH by LC-MS/MS analysis; format: ADME, Microsome; conditions: dose 2-10 µM, read-out: Stability
[4] = Metabolic stability in BALB/c mouse liver microsomes assessed as compound remaining at 2 to 10 uM measured after 60 mins in presence of NADPH by LC-MS/MS analysis; format: ADME, Microsome; conditions: dose 2-10 µM, read-out: Stability
[5] = Metabolic stability in human liver microsomes assessed as compound remaining at 2 to 10 uM measured after 60 mins in absence of NADPH by LC-MS/MS analysis; format: ADME, Microsome; conditions: dose 2-10 µM, read-out: Stability
[6] = Metabolic stability in mouse plasma at 2 uM measured after 60 mins by LC-MS/MS analysis; format: ADME, cell-free; conditions: 1 h
[7] = Metabolic stability in human liver microsomes assessed as compound remaining at 2 to 10 uM measured after 60 mins in presence of NADPH by LC-MS/MS analysis; format: ADME, Microsome; conditions: dose 2-10 µM, read-out: Stability

| Structure (SMILES) | EC50 (Influenza A virus) [µM] | CC50 at 48 h [1] [µM] | Stability [2] | remaining at 1 h, up to 10 µM [3] [%] | remaining at 1 h, up to 10 µM [4] [%] | remaining at 1 h, up to 10 µM [5] [%] | Stability [6] | remaining at 1 h, up to 10 µM [7] [%] |
| --- | --- | --- | --- | --- | --- | --- | --- | --- |
| Cc1cc(C)n2c(NC3CCCCC3)c(-c3ccccc3)nc2n1 | 2.55 | 59 |  |  |  |  |  |  |
| COc1ccc(-c2nc3sccn3c2NC2CCCCC2)cc1 | 3.02 | 63.1 |  |  |  |  |  |  |
| Clc1cnc2nc(-c3ccccc3)c(NC3CCCCC3)n2c1 | 13 | > 100 |  |  |  |  |  |  |
| Fc1ccc(-c2nc3ncccn3c2NC2CCCCC2)c(F)c1 | 0.09 | 72 | Stable | 108 | 22.8 | 104 | Stable | 33.4 |
| Oc1ccc(-c2nc3ncc(Cl)cn3c2NC2CCCCCC2)cc1 | 1.09 | 50 |  |  |  |  |  |  |
| CN1CCOc2cc(-c3nc4ncc(Cl)cn4c3NC3CCCCC3)ccc21 | 2.05 | > 100 |  |  |  |  |  |  |
| Cc1cc(C)n2c(NC3CCCCC3)c(-c3cccc4c3OC(F)(F)O4)nc2n1 | 6.27 | > 25 |  |  |  |  |  |  |
| Cc1cc(C)n2c(NC3CCCCC3)c(-c3ccc(F)c(N4CCOCC4)c3)nc2n1 | 4.57 | > 25 |  |  |  |  |  |  |
| Cc1cc(C)n2c(NC3CCCCC3)c(-c3ccnc(Cl)c3)nc2n1 | 0.27 | > 25 | Stable | 105 | 6.8 | 114 | Stable | 0.5 |
| Fc1ccc(-c2nc3ncc(Cl)cn3c2NC2CCCCC2)cc1F | 0.26 | > 100 | Stable |  |  |  | Stable |  |
| Fc1ccc(-c2nc3ncc(Cl)cn3c2NC2CCCCCC2)cc1F | 0.12 | > 100 | Stable | 101 | 6.3 | 97 | Stable | 2.1 |
| CC(C)Oc1ccc(-c2nc3ncccn3c2NC2CCCCC2)cc1 | 1.45 | > 100 |  |  |  |  |  |  |
| Fc1cc(N2CCOCC2)ccc1-c1nc2ncc(Cl)cn2c1NC1CCCCC1 | 2.49 | 54 |  |  |  |  |  |  |
| Cc1ccc(Cl)c(-c2nc3ncccn3c2NC2CCCCC2)c1F | 1.26 | 27 |  |  |  |  |  |  |
| Cc1cc(C)n2c(NC3CCCCC3)c(-c3ccc(F)c(F)c3)nc2n1 | 1.3 | > 25 |  |  |  |  |  |  |
| CC12CC3CC(C)(C1)CC(Nc1c(-c4ccc(F)c(F)c4)nc4ncccn14)(C3)C2 | 9.18 | 15.5 |  |  |  |  |  |  |
| COCCOCOc1ccc(-c2nc3ncc(Cl)cn3c2NC2CCCCC2)cc1 | 0.86 | > 100 |  |  |  |  |  |  |
| CCN(c1c(-c2ccc(F)c(F)c2)nc2ncccn12)C1CCCCC1 | 12.8 | > 100 |  | 103 | 0 | 110 |  | 1 |
| c1ccc(-c2nc3ncccn3c2NC2CCCC2)cc1 | 0.35 | > 100 |  |  |  |  |  |  |
| Cc1cc(C)n2c(NC3CCCCC3)c(-c3cc(Br)ncc3F)nc2n1 | 3.28 | > 25 |  |  |  |  |  |  |
| Fc1cc(-c2nc3ncc(Cl)cn3c2NC2CCCCC2)ccc1N1CCCC1 | 12.5 | > 100 |  |  |  |  |  |  |
| COCOc1ccc(-c2nc3ncc(Cl)cn3c2NC2CCCCC2)c(F)c1 | 3.04 | 50 |  | 102 | 14.2 | 106 |  | 2.6 |
| CN1CCN(c2ccc(-c3nc4ncc(Cl)cn4c3NC3CCCCC3)c(F)c2)CC1 | 1.26 | 46 |  |  |  |  |  |  |
| COCOc1cccc(-c2nc3ncc(Cl)cn3c2NC2CCCCC2)c1F | 3.04 | 51 |  |  |  |  |  |  |
